# From patent US11717508B2, “Compounds, compositions, and methods for inhibiting bacterial growth” (priority 2016, dated 2023)
# Where “and” joins values, the source holds several entries; their conditions need not be identical. Equal values may be shown once. Read-outs that look alike come from different tables or passages of the source.
# Tests used:
# DosRST regulon = format: cell-based; details: 40 μM, 6 days, >2-fold, p<0.05
# CDC1551(ΔdosR) mutant = format: cell-based; details: for Counts per million (CPM) / Counts per million (CPM) DosR_HC103A1 / Counts per million (CPM) DosR_HC103A2: DosR mutant treated with HC103A; for Counts per million (CPM): replicates 1, 2; for DosR DMSO/DosR HC103A Fold change / log2 Fold change: DosR mutant; for Counts per million (CPM) DosR_HC103A1: replicate 1; for Counts per million (CPM) DosR_HC103A2: replicate 2
# [1] = gene MT0169 Rv0l60c PE, HC103A vs DMSO
# [2] = gene MT0206 (Rv0196), HC103A compared to DMSO, upregulated
# [3] = gene MT0207 (Rv0197), HC103A compared to DMSO, upregulated
# [4] = gene MT0273 Rv0260c, HC103A vs DMSO
# [5] = gene MT0585 (Rv0559c), HC103A compared to DMSO, upregulated
# [6] = gene MT0586 (Rv0560c), HC103A compared to DMSO, upregulated
# [7] = gene MT0587 (Rv0561c), HC103A compared to DMSO, upregulated
# [8] = gene MT0808 (Rv0784), HC103A compared to DMSO, upregulated
# [9] = gene MT0846 Rv0824c desA1, HC103A vs DMSO
# [10] = gene MT0908 Rv0885, HC103A vs DMSO
# [11] = gene MT0909 Rv0886 fprB, HC103A vs DMSO
# [12] = gene MT1214 Rv1177 fdxC, HC103A vs DMSO
# [13] = gene MT1297 (Rv1258c), HC103A compared to DMSO, upregulated
# [14] = gene MT1430 Rv1386 PE, HC103A vs DMSO
# [15] = gene MT1608 (Rv1557, mmpL6), HC103A compared to DMSO, upregulated
# [16] = gene MT1690 Rv1652 argC, HC103A vs DMSO
# [17] = gene MT1692 Rv1654 argB, HC103A vs DMSO
# [18] = gene MT1694 Rv1656 argF, HC103A vs DMSO
# [19] = gene MT2466, HC103A compared to DMSO, upregulated
# [20] = gene MT2467, HC103A compared to DMSO, upregulated
# [21] = gene MT3110 (Rv3026c), HC103A compared to DMSO, upregulated
# [22] = gene MT3134 Rv3049c, HC103A vs DMSO
# [23] = gene MT3249 (Rv3160c), HC103A compared to DMSO, upregulated
# [24] = gene MT3250 (Rv3161c), HC103A compared to DMSO, upregulated
# [25] = gene MT3591 (Rv3487c, lipF), HC103A compared to DMSO, upregulated
# [26] = gene MT3933 (Rv3825c, pks2), HC103A compared to DMSO, upregulated
compound,measurement,setting,value
"O=C(Nc1cccc(O)c1)c1cccc(NC(=O)c2cccs2)c1 [HC103A, N-[3-[(3 hydroxyphenyl)carbamoyl]phenyl]thiophene-2-carboxamide]",genes downregulated by compound that are also downregulated in the CDC1551(ΔdosR) mutant,DosRST regulon,76 genes
same,downregulated genes in CDC1551(ΔdosR) mutant treated with compound,"CDC1551(ΔdosR) mutant; 40 μM, 6 days, >2-fold, p<0.05",13 genes
same,Counts per million (CPM),CDC1551(ΔdosR) mutant; gene MT0169 Rv0l60c PE,32.4 CPM and 38.89 CPM
same,DosR DMSO/DosR HC103A Fold change,CDC1551(ΔdosR) mutant; [1],0.4759
same,log2 Fold change,CDC1551(ΔdosR) mutant; [1],−1.071
same,Counts per million (CPM) DosR_HC103A1,CDC1551(ΔdosR) mutant; gene MT0206 (Rv0196),286.4 CPM
same,Counts per million (CPM) DosR_HC103A2,CDC1551(ΔdosR) mutant; gene MT0206 (Rv0196),309 CPM
same,DosR DMSO/DosR HC103A Fold change,CDC1551(ΔdosR) mutant; [2],6.59
same,log2 Fold change,CDC1551(ΔdosR) mutant; [2],2.72
same,Counts per million (CPM) DosR_HC103A1,CDC1551(ΔdosR) mutant; gene MT0207 (Rv0197),509.4 CPM
same,Counts per million (CPM) DosR_HC103A2,CDC1551(ΔdosR) mutant; gene MT0207 (Rv0197),528.3 CPM
same,DosR DMSO/DosR HC103A Fold change,CDC1551(ΔdosR) mutant; [3],4.134
same,log2 Fold change,CDC1551(ΔdosR) mutant; [3],2.047
same,Counts per million (CPM),CDC1551(ΔdosR) mutant; gene MT0273 Rv0260c,19.06 CPM and 17.95 CPM
same,DosR DMSO/DosR HC103A Fold change,CDC1551(ΔdosR) mutant; [4],0.4609
same,log2 Fold change,CDC1551(ΔdosR) mutant; [4],−1.117
same,Counts per million (CPM) DosR_HC103A1,CDC1551(ΔdosR) mutant; gene MT0585 (Rv0559c),"4,246.95 CPM"
same,Counts per million (CPM) DosR_HC103A2,CDC1551(ΔdosR) mutant; gene MT0585 (Rv0559c),"5,318.58 CPM"
same,DosR DMSO/DosR HC103A Fold change,CDC1551(ΔdosR) mutant; [5],5.18
same,log2 Fold change,CDC1551(ΔdosR) mutant; [5],2.373
same,Counts per million (CPM) DosR_HC103A1,CDC1551(ΔdosR) mutant; gene MT0586 (Rv0560c),"8,065.19 CPM"
same,DosR DMSO/DosR HC103A Fold change,CDC1551(ΔdosR) mutant; [6],384.9
same,log2 Fold change,CDC1551(ΔdosR) mutant; [6],8.588
same,Counts per million (CPM) DosR_HC103A1,CDC1551(ΔdosR) mutant; gene MT0587 (Rv0561c),66.91 CPM
same,Counts per million (CPM) DosR_HC103A2,CDC1551(ΔdosR) mutant; gene MT0587 (Rv0561c),74.86 CPM
same,DosR DMSO/DosR HC103A Fold change,CDC1551(ΔdosR) mutant; [7],2.044
same,log2 Fold change,CDC1551(ΔdosR) mutant; [7],1.031
same,Counts per million (CPM) DosR_HC103A1,CDC1551(ΔdosR) mutant; gene MT0808 (Rv0784),242.1 CPM
same,Counts per million (CPM) DosR_HC103A2,CDC1551(ΔdosR) mutant; gene MT0808 (Rv0784),193.9 CPM
same,DosR DMSO/DosR HC103A Fold change,CDC1551(ΔdosR) mutant; [8],2.445
same,log2 Fold change,CDC1551(ΔdosR) mutant; [8],1.29
same,Counts per million (CPM),CDC1551(ΔdosR) mutant; gene MT0846 Rv0824c desA1,"2,264.39 CPM and 5,375.06 CPM"
same,DosR DMSO/DosR HC103A Fold change,CDC1551(ΔdosR) mutant; [9],0.4703
same,log2 Fold change,CDC1551(ΔdosR) mutant; [9],−1.088
same,Counts per million (CPM),CDC1551(ΔdosR) mutant; gene MT0908 Rv0885,"2,165.30 CPM and 1,401.92 CPM"
same,DosR DMSO/DosR HC103A Fold change,CDC1551(ΔdosR) mutant; [10],0.3709
same,log2 Fold change,CDC1551(ΔdosR) mutant; [10],−1.431
same,Counts per million (CPM),CDC1551(ΔdosR) mutant; gene MT0909 Rv0886 fprB,412.7 CPM and 231.2 CPM
same,DosR DMSO/DosR HC103A Fold change,CDC1551(ΔdosR) mutant; [11],0.453
same,log2 Fold change,CDC1551(ΔdosR) mutant; [11],−1.142
same,Counts per million (CPM),CDC1551(ΔdosR) mutant; gene MT1214 Rv1177 fdxC,"704.9 CPM and 1,378.70 CPM"
same,DosR DMSO/DosR HC103A Fold change,CDC1551(ΔdosR) mutant; [12],0.4926
same,log2 Fold change,CDC1551(ΔdosR) mutant; [12],−1.021
same,Counts per million (CPM) DosR_HC103A1,CDC1551(ΔdosR) mutant; gene MT1297 (Rv1258c),106.4 CPM
same,Counts per million (CPM) DosR_HC103A2,CDC1551(ΔdosR) mutant; gene MT1297 (Rv1258c),137 CPM
same,DosR DMSO/DosR HC103A Fold change,CDC1551(ΔdosR) mutant; [13],2.269
same,log2 Fold change,CDC1551(ΔdosR) mutant; [13],1.182
same,Counts per million (CPM),CDC1551(ΔdosR) mutant; gene MT1430 Rv1386 PE,63.3 CPM and 54.49 CPM
same,DosR DMSO/DosR HC103A Fold change,CDC1551(ΔdosR) mutant; [14],0.4765
same,log2 Fold change,CDC1551(ΔdosR) mutant; [14],−1.069
same,Counts per million (CPM) DosR_HC103A1,"CDC1551(ΔdosR) mutant; gene MT1608 (Rv1557, mmpL6)",351.7 CPM
same,Counts per million (CPM) DosR_HC103A2,"CDC1551(ΔdosR) mutant; gene MT1608 (Rv1557, mmpL6)",540 CPM
same,DosR DMSO/DosR HC103A Fold change,CDC1551(ΔdosR) mutant; [15],6.869
same,log2 Fold change,CDC1551(ΔdosR) mutant; [15],2.78
same,Counts per million (CPM),CDC1551(ΔdosR) mutant; gene MT1690 Rv1652 argC,130.6 CPM and 56.84 CPM
same,DosR DMSO/DosR HC103A Fold change,CDC1551(ΔdosR) mutant; [16],0.4979
same,log2 Fold change,CDC1551(ΔdosR) mutant; [16],−1.006
same,Counts per million (CPM),CDC1551(ΔdosR) mutant; gene MT1691,81.47 CPM and 33.33 CPM
same,DosR DMSO/DosR HC103A Fold change,"CDC1551(ΔdosR) mutant; gene MT1691, HC103A vs DMSO",0.4846
same,log2 Fold change,"CDC1551(ΔdosR) mutant; gene MT1691, HC103A vs DMSO",−1.045
same,Counts per million (CPM),CDC1551(ΔdosR) mutant; gene MT1692 Rv1654 argB,128.8 CPM and 55.27 CPM
same,DosR DMSO/DosR HC103A Fold change,CDC1551(ΔdosR) mutant; [17],0.4965
same,log2 Fold change,CDC1551(ΔdosR) mutant; [17],−1.01
same,Counts per million (CPM),CDC1551(ΔdosR) mutant; gene MT1694 Rv1656 argF,79.75 CPM and 39.53 CPM
same,DosR DMSO/DosR HC103A Fold change,CDC1551(ΔdosR) mutant; [18],0.4259
same,log2 Fold change,CDC1551(ΔdosR) mutant; [18],−1.231
same,Counts per million (CPM) DosR_HC103A1,CDC1551(ΔdosR) mutant; gene MT2466,356.4 CPM
same,Counts per million (CPM) DosR_HC103A2,CDC1551(ΔdosR) mutant; gene MT2466,182.6 CPM
same,DosR DMSO/DosR HC103A Fold change,CDC1551(ΔdosR) mutant; [19],2.643
same,log2 Fold change,CDC1551(ΔdosR) mutant; [19],1.402
same,Counts per million (CPM) DosR_HC103A1,CDC1551(ΔdosR) mutant; gene MT2467,57.69 CPM
same,Counts per million (CPM) DosR_HC103A2,CDC1551(ΔdosR) mutant; gene MT2467,12.39 CPM
same,DosR DMSO/DosR HC103A Fold change,CDC1551(ΔdosR) mutant; [20],2.468
same,log2 Fold change,CDC1551(ΔdosR) mutant; [20],1.303
same,Counts per million (CPM) DosR_HC103A1,CDC1551(ΔdosR) mutant; gene MT3110 (Rv3026c),44.13 CPM
same,Counts per million (CPM) DosR_HC103A2,CDC1551(ΔdosR) mutant; gene MT3110 (Rv3026c),30.13 CPM
same,DosR DMSO/DosR HC103A Fold change,CDC1551(ΔdosR) mutant; [21],2.016
same,log2 Fold change,CDC1551(ΔdosR) mutant; [21],1.012
same,Counts per million (CPM),CDC1551(ΔdosR) mutant; gene MT3134 Rv3049c,"1,202.50 CPM and 892.7 CPM"
same,DosR DMSO/DosR HC103A Fold change,CDC1551(ΔdosR) mutant; [22],0.4226
same,log2 Fold change,CDC1551(ΔdosR) mutant; [22],−1.243
same,Counts per million (CPM) DosR_HC103A1,CDC1551(ΔdosR) mutant; gene MT3249 (Rv3160c),172.6 CPM
same,DosR DMSO/DosR HC103A Fold change,CDC1551(ΔdosR) mutant; [23],2.261
same,log2 Fold change,CDC1551(ΔdosR) mutant; [23],1.177
same,Counts per million (CPM) DosR_HC103A1,CDC1551(ΔdosR) mutant; gene MT3250 (Rv3161c),561.8 CPM
same,Counts per million (CPM) DosR_HC103A2,CDC1551(ΔdosR) mutant; gene MT3250 (Rv3161c),555 CPM
same,DosR DMSO/DosR HC103A Fold change,CDC1551(ΔdosR) mutant; [24],2.364
same,log2 Fold change,CDC1551(ΔdosR) mutant; [24],1.241
same,Counts per million (CPM),CDC1551(ΔdosR) mutant; gene MT3573.12,281 CPM and 281.6 CPM
same,DosR DMSO/DosR HC103A Fold change,"CDC1551(ΔdosR) mutant; gene MT3573.12, HC103A vs DMSO",0.4221
same,log2 Fold change,"CDC1551(ΔdosR) mutant; gene MT3573.12, HC103A vs DMSO",−1.244
same,Counts per million (CPM) DosR_HC103A1,"CDC1551(ΔdosR) mutant; gene MT3591 (Rv3487c, lipF)",185.8 CPM
same,Counts per million (CPM) DosR_HC103A2,"CDC1551(ΔdosR) mutant; gene MT3591 (Rv3487c, lipF)",63.03 CPM
same,DosR DMSO/DosR HC103A Fold change,CDC1551(ΔdosR) mutant; [25],2.033
same,log2 Fold change,CDC1551(ΔdosR) mutant; [25],1.023
same,Counts per million (CPM) DosR_HC103A1,"CDC1551(ΔdosR) mutant; gene MT3933 (Rv3825c, pks2)",917.6 CPM
same,Counts per million (CPM) DosR_HC103A2,"CDC1551(ΔdosR) mutant; gene MT3933 (Rv3825c, pks2)",561 CPM
same,DosR DMSO/DosR HC103A Fold change,CDC1551(ΔdosR) mutant; [26],2.341
same,log2 Fold change,CDC1551(ΔdosR) mutant; [26],1.227
